Measured values from patent publication US10738024B2, “Compounds for treatment of angiogenesis-mediated diseases” (Indiana University Research and Technology Corporation, priority 2013, dated 2020).
“Also recorded” adds a separate entry of the source.

How the values were obtained:
IL8 = assay: qRT-PCR of NF-κB target gene IL8 in TNF-α challenged cells; type: cell-based, human; details: 10 ng/ml TNF-α for 24 hours; listed as SH-11052 (2)
Experimental: (§1) Similarly, the mRNA expression of the pro-inflammatory molecules IL8, PTGS2 (COX2) and CCL2 (MCP-1), inducible by NF-κB, were analyzed in the presence of SH-11052 (2). Cells (10^5 per well) were seeded in a 6-well plate and incubated for 24 hours at 37° C. and 5% CO2. The cells were then starved in 0.1% serum-EBM-2 for 12 hours followed by incubation for an hour in the presence of different concentrations of SH-11052 (2). The cells were then challenged for 24 hours with 10 ng/ml TNF-α. Following incubation, cells were lysed and RNA was isolated using Trizol reagent (Life Technologies). cDNA was prepared from 80 ng total RNA using random primers and M-MuLV Reverse Transcriptase (New England Biolabs, Ipswich, Mass., USA). RT-PCR reactions were set up using the TaqMan Fast Gene Expression Assay Kit according to the manufacturer's instructions. FAM-labeled TaqMan probes for PTGS2 (Hs00153133_m1), CCL2 (Hs00234140_m1), IL8 (Hs00174103_m1), and control, TBP (Hs99999910_m1), genes were used to monitor the expression levels of these genes. The qRT-PCR plate was read in a ViiATM 7 qPCR system (Life Technologies) and the data were analyzed using the ΔΔCt method. The expression levels of genes were normalized to TBP gene expression and calibrated to the DMSO-treated, unstimulated sample.

Akt = assay: Phosphorylation of Akt in HRECs upon VEGF stimulation (immunoblot); type: cell-based, human; details: 100 ng/ml VEGF, 20 minutes
Experimental: HRECs were seeded at 10^5 cells/well in a 6-well plate and after 24 hours of incubation at 37° C., cells were serum starved in 0.1% serum-EBM-2 for 8 hours. Cells were then treated with the indicated concentrations of SH-11052 (2) for one hour before the addition of 100 ng/ml VEGF. After 20 minutes, cells were lysed in NP-40 Lysis buffer containing 25 mM HEPES pH 7.4, 1% NP-40, 150 mM NaCl, 10% glycerol, 1 mM sodium orthovanadate, 10 mM sodium fluoride, 1 mM sodium pyrophosphate, 1 mM PMSF, 2.5 mg/ml aprotinin, 1 mM pepstatin, and 1 mM leupeptin. Equal amounts of proteins (80 μg), as measured by a Bradford assay, were run on 10% SDS-PAGE, transferred to PVDF membrane, blocked with 5% BSA in TBS-0.05% Tween-20 and immunoblotted with the indicated primary antibodies (1:1000 in 1% BSA in TBS-0.05% Tween-20) overnight at 4° C. After three washes in TBS-0.05% Tween-20, HRP-conjugated secondary antibodies (1:5000 in 5% BSA in TBS-0.05% Tween-20) were applied for one hour at room temperature. After three washes, the protein bands were detected and densitized using ECL Prime western blot detection reagent (GE Life Sciences, Piscataway, N.J., USA) and an XRS gel documentation system running Quantity One software (Bio-Rad). Target protein band intensity was normalized to housekeeping gene α-tubulin. […]

VCAM-1 = VCAM-1 protein expression in HRECs exposed to TNF-α (immunofluorescence); type: cell-based, human; details: 10 ng/ml TNF-α for 24 hours
Experimental: Cells (25,000 per coverslip) were seeded onto coverslips coated with Attachment Factor (Cell Systems, Kirkland, Wash., USA) and incubated at 37° C. and 5% CO2 for 24 hours in EGM-2. The cells were starved in 0.1% serum-EBM-2 for 8 hours followed by incubation in 0.1% serum-EBM-2 medium for an hour in the presence of different concentrations of SH-11052 (2). The cells were challenged with 10 ng/ml of TNF-α for 24 hours and fixed with 4% paraformaldehyde solution for 20 minutes at room temperature. The coverslips were quickly washed three times in TBS and blocked using 10% block solution (DAKO) prepared in 1×TBS-1% BSA buffer. The coverslips were incubated with the antibody against VCAM-1 (1:100 dilution), a cell adhesion molecule specifically expressed on endothelial cells, whose expression is induced by NF-κB upon TNF-α signaling, for 16 hours at 4° C. followed by three washes in TBS-0.1% BSA buffer. Dylight 555-conjugated secondary antibody (1:200) was used to probe for the VCAM-1 antibody. After three washes in TBS-0.1% BSA, the coverslips were mounted using Vectashield mounting medium containing DAPI nuclear stain. The cells were imaged using an LSM 700 confocal microscope. The image was analyzed for fluorescence signal intensity using MetaMorph software (Molecular Devices, Sunnyvale, Calif., USA).

HUVECs = assay: EdU incorporation (DNA synthesis) in HUVECs; type: cell-based, human; details: 24 hours treatment, 10 μM EdU pulse; listed as SH-11052 (2)
Experimental: In order to confirm the inhibition of cell proliferation, incorporation of 5-ethynyl-2′-deoxyuridine (EdU) into endothelial cells in the presence of SH-11052 (2) was further monitored. Particularly, cells (25,000 per coverslip) were seeded onto coverslips coated with Attachment Factor (Cell Systems, Kirkland, Wash., USA) placed in a 6-well plate and incubated with the indicated concentrations of SH-11052 (2) in EGM-2 for 24 hours at 37° C. and 5% CO2. The cells were then serum starved for 8 hours and the medium was replaced with EGM-2 containing 10 μM EdU. The plate was further incubated for another 8 hours before processing the cells for detection of labeled DNA (according to the manufacturer's instructions for the Click-iT EdU assay kit). Images were taken using an EVOS fluorescence microscope (AMG, Mill Creek, Wash., USA) and the number of DAPI stained and EdU stained cells were counted in six randomly chosen fields using ImageJ software.

PTGS2 (COX2) = assay: qRT-PCR of NF-κB target gene PTGS2 in TNF-α challenged cells; type: cell-based, human; details: 10 ng/ml TNF-α for 24 hours; listed as SH-11052 (2)
Experimental: as §1

HRECs = assay: Migration of HRECs; type: cell-based, human
[1] = system: oxygen-induced retinopathy (OIR); assay: Oxygen-induced retinopathy (OIR) mouse model, intravitreal injection; type: in vivo, C57BL/6 mice; details: single intravitreal dose, estimated 1 μM, injected P12, read P17; listed as SH-11037 (6c)
Experimental: Particularly, neonatal C57BL/6 mice (n=3-4 pups per group) were exposed to 75% oxygen from postnatal day 7 (P7) until P12 and brought to room air to cause ischemia and extensive neovessel formation at P17. The hyperoxia obliterates the normal retinal vasculature, prompting aberrant overgrowth including intravitreal vascular tufts, once returned to normoxia. Further, mice were injected with PBS alone (vehicle) or PBS containing SH-11037 (6c) to give the estimated intravitreal concentrations of 1.0 μM using a 33G needle, under isoflurane anesthesia at the time of return to room air on P12. At P17, the mice were euthanized, eyes fixed, and retinal wholemounts were prepared.
Wholemounts were stained with AlexaFluor488-isolectin B4 and imaged on a Zeiss LSM700 confocal microscope. Neovascular area, as a percentage of total retinal area, was calculated using ImageJ with the SWIFT_NV plugin.

Structure (SMILES)	mRNA expression of IL8 (IL8)	activation (phosphorylation) of Akt (Akt)	VCAM-1 protein expression (VCAM-1)	DNA synthesis (EdU incorporation) in HUVECs (HUVECs)	mRNA expression of PTGS2 (COX2) (PTGS2 (COX2))	migration of HRECs (HRECs)	neovascular area / neovascularization in vivo [1]
COc1ccc(CC2COc3cc(OC)c(O)c(O)c3C2=O)cc1O (single isomer, unassigned) [Compound 2]	decreased the expression	inhibited activation	significant dose-dependent decrease	blocked EdU incorporation; also recorded: significantly inhibited in a dose dependent manner	decreased the expression		
COc1ccc(CC2COc3cc(OC)c(OC)c(OC)c3C2=O)cc1OC(=O)[C@H](Cc1ccccc1)NC(=O)OC(C)(C)C (stereo partly drawn) [Compound 6c, (2S)-2-methoxy-5-((5,6,7-trimethoxy-4-oxochroman-3-yl)methyl)phenyl 2-((tert-butoxycarbonyl)amino)-3-phenylpropanoate]						blocked migration	blocked neovascularization in vivo; also recorded: significantly decreased neovascular area
